We go through four molecules from patent US20050267016A1, “CD-10 activated prodrug compounds” (priority 2001, published 2005).

Series [1] has as its system 22 RV1 (prostate carcinoma) cells. Put plainly: 3H-thymidine incorporation, 22RV1 cells. It is filed as cell-based. As to conditions: Homo sapiens, Table 6, 48 hours, read-out: IC50 22RV1 CD10−PSA+. As for the experimental part:
Adherent cells, LNCaP (prostate carcinoma), PC-3 (prostate carcinoma) and 22 RV1 (prostate carcinoma), were cultured in DMEM media containing 10% heat inactivated fetal calf serum (FCS). On the day of the study the cells were detached from the plate with a trypsin solution. The collected cells were washed and resuspended at a concentration of 0.25×10^6 cells/ml in DMEM containing 10% FCS. 100 μl of cell suspension were added to 96 well plates and the plates were incubated for 3 hours to allow the cells to adhere. […] The plates were then incubated for 24 hours, pulsed with 1:0 μl of a 100 μCi/ml ^3H-thymidine and incubated for an additional 24 hours (total incubation time 48 hours). The plates were harvested using a 96 well Harvester (Packard Instruments) and counted on a Packard Top Count Counter. Four parameter logistic curves were fitted to the ^3H-thymidine incorporation as a function of drug molarity using Prism software to determine IC50 values.
In general terms: Uptake of a labelled nucleoside into DNA is a usual measure of proliferation.

Series [2] deals with human colon carcinoma (HT-29) xenograft. The following applies: 4.0 mg/kg every 7 days for 5 doses. From the text: Healthy young male nude mice were subcutaneously injected with 5 million of HT-29 cells.
In series [3] the test system is HL60 cells (CD10 negative). Description: Proliferation of HL60 cells with supernatant from compound-treated CHO cells. It is filed as cell-based. As to conditions: Homo sapiens. From the text: Confirmation of the data is shown when Suc-βAla-Leu-Ala-Leu-Dox was compared to Suc-Leu-Ala-Gly-Dox and the results are consistent with the fact that Suc-βAla-Leu-Ala-Leu is cleaved by CD10 transfected cells and not by the parental cell lines.

The nature of series [4]: Metabolism and clearance in normal mice (plasma and urine, LC MS/MS). It is filed as in vivo. The following applies: after Suc-βAla-Ile-Ala-Leu-Dox 117 mg/kg.
Series [5] has as its system LNCaP cell homogenate. Description: Hydrolysis by cultured human cell homogenates. In kind it is biochemical. As for the experimental part: (§1) In addition, 1 μM phosphoramidon, a CD10 inhibitor was included in incubations with LNCaP cell homogenate. To estimate specific activity protein content was estimated in the soluble portion of the homogenates. Results expressed as protein specific activity (FIG. 12) indicate that LNCaP cells which are known to contain CD10 show the greatest Suc-Ile-Ala-Leu-Dox hydrolyzing activity.

The test system of series [6] is PC-3 cell homogenate. Put plainly: Hydrolysis by cultured human cell homogenates. As to conditions: 12.5 μg/mL, up to 1 hr, 37° C., pH 7.2. In kind it is biochemical. As for the experimental part:
as §1

The subject of series [7] is colorectal carcinoma LS174t xenograft. Put plainly: LS174t xenograft efficacy. It is filed as in vivo, nude mice. As to conditions: for Mean Day of Survival (MDS): animals whose tumors reached 1.5 g prior to Day 60; for long-term survivors: up to 60 days. From the text: There were 4 and 2 long-term survivors in the low and high dose groups, respectively, compared with 0 in the vehicle control group.

Series [8] has as its system Parental CHO cells. Put plainly: Conversion to Leu-Dox or Gly-Dox in cell supernatants, parental CHO. As to conditions: 10 μM, 37° C. In kind it is cell-based, Chinese Hamster. As for the experimental part:
(§2) To directly ask the question of whether the CD10 expressing cells were capable of cleaving the prodrug, supernatants from CD10 transfected or parental CHO cells treated with the compounds were collected. […] After incubation for 1, 4, and 24 hours, an aliquot of each supernatant was transferred to a 96-well plate and frozen at −20° C. Samples were subsequently thawed and analyzed by reversed phase HPLC (4.6×50 mm 21 TSK Super-ODS column) with fluorescence detection after dilution with 3 volumes of acetonitrile, removal of precipitate by centrifugation, and further dilution into 3 volumes of water. When incubated with Suc-βAla-Leu-Ala-Leu-Dox, there was no detectable metabolism to Leu-Dox observed with the parental cell line while clone 8 (CD10 transfected) generated significant levels of Leu-Dox from Suc-βAla-Leu-Ala-Leu-Dox (Table 27).

The test system of series [9] is CD10 transfected CHO cells (clone 8). Description: Conversion to Leu-Dox or Gly-Dox in cell supernatants, CD10 transfected CHO. The following applies: Clone 8 (CD10 transfected), 10 μM, 37° C. In kind it is cell-based, Chinese Hamster. As for the experimental part:
as §2

SMILES strings stand for the structures. Read-outs that look alike come from different tables or passages of the source.

For `COc1cccc2c1C(=O)c1c(O)c3c(c(O)c1C2=O)C[C@@](O)(C(=O)CO)C[C@@H]3O[C@H]1C[C@H](N)[C@H](O)[C@H](C)O1` [Doxorubicin, reference compound], the IC50 (in general, the concentration needed to halve the response being measured) in [1] turned out to be 30 nM. In addition, in series [2], the “% TGI (Day 14, mean)” value was 9.3%; the “% TGI (Day 25, median)” value amounted to 30.9%; the “Calculated Mean Day of Survival” value was 30.0 ± 3.7 days; the “Extension of Mean Day of Survival over controls” value is reported as 16.7%. Also, in [2], the “Mean Tumor Weight at Day 14” value worked out at 665 ± 103 mg, the “Median Tumor Weight at Day 25” value came out at 1046 mg and the “Number of Long Term Survivors” value is reported as 0/10. In [2] (listed as doxorubicin), the “Calculated Mean Day of Survival” value is 30 days. The molecule also had an IC50 in [3] (HL-60, 24 h, HL60 fresh compound, 24 hours) of 164 nM. Further, in series [3] (HL-60, 24 h, supernatant of Parental CHO, collected 24 hours after exposure), the IC50 amounted to 279 nM. The molecule further registered an IC50 in [3] (HL-60, supernatant of Clone 8 (CD10 Pos.)) of 488 nM. Also, half-maximal inhibition in series [3] (HL-60, supernatant of Clone 10 (CD10 Neg.)) (IC50) was put at 417 nM. In [3] (HL-60, supernatant of Clone DB4 (CD10 Pos.)), this molecule had an IC50 of 491 nM. For the same molecule, in [4] (collected 0-2 hours), the “Urine (% adm. dose) 2 hr” value was determined as 0.21 % adm. dose. Further, in series [4] (collected 2-24 hours), the “Urine (% adm. dose) 24 hr” value worked out at 0.51 % adm. dose.

As to `CC[C@H](C)[C@H](NC(=O)CCC(=O)O)C(=O)N[C@@H](C)C(=O)N[C@@H](CC(C)C)C(=O)N[C@H]1C[C@H](O[C@H]2C[C@](O)(C(=O)CO)Cc3c(O)c4c(c(O)c32)C(=O)c2c(OC)cccc2C4=O)O[C@@H](C)[C@H]1O` [Suc-Ile-Ala-Leu-Dox], the “hydrolyzing activity (protein specific activity)” value is recorded as “inhibited by phosphoramidon” in [5] (LNCaP cell homogenate with 1 μM phosphoramidon) and “greatest” in series [5] (LNCaP cell homogenate, 12.5 μg/mL, up to 1 hr, 37° C., pH 7.2). In [6], the hydrolysis by homogenate entry was “not”.

Regarding `CC[C@H](C)[C@H](NC(=O)CCNC(=O)CCC(=O)O)C(=O)N[C@@H](C)C(=O)N[C@@H](CC(C)C)C(=O)N[C@H]1C[C@H](O[C@H]2C[C@](O)(C(=O)CO)Cc3c(O)c4c(c(O)c32)C(=O)c2c(OC)cccc2C4=O)O[C@@H](C)[C@H]1O` [Suc-βAla-Ile-Ala-Leu-Dox], the “Mean Day of Survival (MDS)” value in [7] (53 mg/kg Q5DX5) was found to be 29.7 days; in [7] (68 mg/kg Q5DX5), 23.4 days. The long-term survivors in series [7] (53 mg/kg i.v. Q5DX5, groups of ten) was found to be 4; in [7] (68 mg/kg i.v. Q5DX5, groups of ten), 2.

Turning to `COc1cccc2c1C(=O)c1c(O)c3c(c(O)c1C2=O)C[C@@](O)(C(=O)CO)C[C@@H]3O[C@H]1C[C@H](NC(=O)[C@H](CC(C)C)NC(=O)[C@H](C)NC(=O)[C@H](CC(C)C)NC(=O)CCNC(=O)CCC(=O)O)[C@H](O)[C@H](C)O1` [Suc-βAla-Leu-Ala-Leu-Dox], in series [8], the “Conversion rate to Leu-Dox or Gly-Dox” value was found to be 0 mM/h and the “Percent Conversion/Hour to Leu-Dox or Gly-Dox” value was found to be 0 Percent Conversion/Hour. Also, in series [9], the “Conversion rate to Leu-Dox or Gly-Dox” value turned out to be 0.30 mM/h and the “Percent Conversion/Hour to Leu-Dox or Gly-Dox” value stood at 3.00 Percent Conversion/Hour.
